Reference: patent publication US6696498B2, “2-cyclopenten-1-one and its derivatives as inhibitors of the NF-kB factor” (Consiglio Nazionale Della Richerche, priority 1996, dated 2004)
Values belong to the compound of their own block, whether it stands above or below them.

Key:
[1] = test system: HSF (Heat Shock Transcription Factor); experiment: HSF activation in TPA-stimulated Jurkat cells, EMSA of whole-cell extracts; assay type: cell-based, human; conditions: then TPA 25 ng/ml, extracts after 3 hours; for activation of HSF (specificity): 500 uM for 1 hour, FIG. 1D
Procedure: (§1) The cells were prepared according to the method described in C. Amici et al. (Cancer Research 55, 4452-4457, 1995).
(§2) The cells were treated with 2-cyclopenten-1-one at different concentrations (125-1000 μM) for 1 hour and then were stimulated with TPA (25 ng/ml).
(§3) After 3 hours the whole-cell extracts were prepared and subjected to EMSA (Electrophoretic Mobility Shift Assay) as described for NF-kB in U. Zabel et al. (J. Biol. Chem. 266: 242, 1991) and HSF in C. Amici et al. (Cancer Res. 55: 4452, 1995), to determine NF-kB and HSF activation respectively.
The positions of the complex HSF-DNA (HSF), the HSF-DNA constitutive activity (CHBA) and the proteins-DNA non-specific interactions (ns) are indicated in FIG. 1B. The line “econtrol” indicates the non-TPA-stimulated cells as a control of non-activated NF-kB.
(§4) The cells were treated for 1 hour with the same concentration (500 uM) of: 2-cyclopenten-1-one, cyclopentanone or cyclopentene, and then were stimulated with TPA (25 ng/ml). C represents the non-TPA-stimulated control. After 3 hours the whole-cell extracts were prepared and subjected to EMSA to verify the activation of NF-kB (FIG. 1C) and of HSF (FIG. 1D) respectively.

NF-kB [2] = molecular target: T1, NF-kB (Homo sapiens, UniProt P19838+Q04206); experiment: TPA-induced NF-kB activation in Jurkat cells, EMSA of whole-cell extracts; assay type: cell-based; conditions: then TPA 25 ng/ml, extracts after 3 hours; for inhibition of TPA-induced NF-kB activation (specificity): 500 uM for 1 hour, FIG. 1C
T1 construct: endogenous in cells; host or cells: Jurkat (human T lymphoid cell line)
Text: (§5) Inhibition tests have been carried out in type T lymphoid human cells (Jurkat cell line), as well as in other human cell lines. NF-kB activation was stimulated with 12-o-tetradecanoyl-phorbol-13-acetate (TPA). 2-Cyclopenten-1-one was also effective in inhibiting NF-kB activation after other types of stimulation, including stimulation by tumor necrosis factor alpha or viral infection, and in different types of human cells (data not shown).
The effect of the treatment with 2-cyclopenten-1-one on NF-kB activation by TPA has been tested in Jurkat cells by using the procedures described hereinbelow and shown in FIG. 1.
as §1, §2, §3, §4

NF-kB [3] = molecular target: T1, NF-kB; experiment: NF-kB activation after other types of stimulation (tumor necrosis factor alpha or viral infection) in different human cells; assay type: cell-based; conditions: stimulation by tumor necrosis factor alpha or viral infection, data not shown
Text: as §5

T1 sequence (P19838 1-433 limits assumed): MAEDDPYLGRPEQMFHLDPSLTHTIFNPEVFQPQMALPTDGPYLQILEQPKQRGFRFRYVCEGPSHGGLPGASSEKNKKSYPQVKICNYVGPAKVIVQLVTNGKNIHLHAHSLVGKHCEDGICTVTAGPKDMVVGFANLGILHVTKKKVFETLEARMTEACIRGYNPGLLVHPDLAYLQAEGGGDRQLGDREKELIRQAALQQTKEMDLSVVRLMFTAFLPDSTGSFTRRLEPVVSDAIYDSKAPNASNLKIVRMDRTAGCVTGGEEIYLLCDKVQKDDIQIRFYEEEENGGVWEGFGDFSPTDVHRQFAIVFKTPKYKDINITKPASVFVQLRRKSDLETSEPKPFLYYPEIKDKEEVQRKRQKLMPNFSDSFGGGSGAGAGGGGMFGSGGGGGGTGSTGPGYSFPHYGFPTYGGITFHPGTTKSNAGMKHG
T1 sequence (Q04206 whole entry): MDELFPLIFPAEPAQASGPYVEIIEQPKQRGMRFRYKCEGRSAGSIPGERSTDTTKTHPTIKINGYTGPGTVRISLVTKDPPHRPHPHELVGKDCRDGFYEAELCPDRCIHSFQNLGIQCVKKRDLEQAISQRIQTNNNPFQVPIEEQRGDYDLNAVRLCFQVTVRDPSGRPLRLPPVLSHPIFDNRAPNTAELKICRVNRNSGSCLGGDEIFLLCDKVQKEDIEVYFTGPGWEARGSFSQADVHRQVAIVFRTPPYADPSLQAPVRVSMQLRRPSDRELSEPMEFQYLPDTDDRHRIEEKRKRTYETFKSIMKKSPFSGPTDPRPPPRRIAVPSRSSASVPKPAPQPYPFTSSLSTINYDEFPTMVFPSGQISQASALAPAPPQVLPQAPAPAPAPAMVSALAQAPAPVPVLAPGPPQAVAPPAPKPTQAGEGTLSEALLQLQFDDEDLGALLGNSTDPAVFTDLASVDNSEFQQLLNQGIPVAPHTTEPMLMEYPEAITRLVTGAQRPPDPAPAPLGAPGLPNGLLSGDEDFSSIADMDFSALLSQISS

SMILES: O=C1CCCC1 [cyclopentanone, reference compound]
- activation of HSF (specificity) [1]: do not activate
- inhibition of TPA-induced NF-kB activation (specificity) (NF-kB [2]): do not inhibit

SMILES: O=C1C=CCC1 [2-cyclopenten-1-one]
- concentration from which activation of HSF is evident ([1]; 125-1000 μM for 1 hour, FIG. 1B): ≥ 125 µM
- inhibition of NF-kB activation after other types of stimulation (NF-kB [3]): effective
- inhibition of NF-kB activation by TPA (NF-kB [2]; 125 uM for 1 hour, FIG. 1A): able to inhibit
- inhibition of TPA-induced NF-kB activation (specificity) (NF-kB [2]): inhibits
- NF-kB band (NF-kB-DNA complex) in EMSA (NF-kB [2]; 500 um for 1 hour, FIG. 1A): absent

- inhibition of TPA-induced NF-kB activation (specificity) (NF-kB [2]): do not inhibit
SMILES: C1=CCCC1 [cyclopentene, reference compound]
- activation of HSF (specificity) [1]: do not activate
